According to ChEMBL document CHEMBL1201862, “PubChem BioAssay data set” (2004):
Active and inactive are the calls of the source.

Experiments:
fMet-Leu-Phe receptor = fMet-Leu-Phe receptor (Homo sapiens, UniProt P21462); experiment: formyl peptide receptor binders – dose response (AID 519); type: functional
cells [1] = experiment: cells
Major prion protein = Major prion protein (Homo sapiens, UniProt P04156); type: functional, cell-based
Albumin = Albumin (Bos taurus, UniProt P02769); experiment: Counterscreen for inhibitors of T-cell receptor (TCR)-CD3 interaction: Fluorescence-based biochemical high throughput dose response assay to identify inhibitors of T-cell receptor (TCR)-CD3 interaction using a TAMRA-labeled BSA probe.; type: functional
Cytochrome P450 2C9 = Cytochrome P450 2C9 (Homo sapiens, UniProt P11712)
cells [2] = type: functional, cell-based
Cytochrome P450 2C19 = Cytochrome P450 2C19 (Homo sapiens, UniProt P33261); experiment: Cytochrome panel assay with activity outcomes. Panel member name: p450-cyp2c19 Compounds with AC50 equal or less than 10 uM are considered active; type: functional; settings: read-out: AC50
[3] = molecular target: T1, Trace amine-associated receptor 1 (Homo sapiens, UniProt Q96RJ0); experiment: Fluorescence-based cell-based high throughput dose response assay to identify agonists of the human trace amine associated receptor 1 (TAAR1).; type: functional
T1 sequence (Q96RJ0 whole entry): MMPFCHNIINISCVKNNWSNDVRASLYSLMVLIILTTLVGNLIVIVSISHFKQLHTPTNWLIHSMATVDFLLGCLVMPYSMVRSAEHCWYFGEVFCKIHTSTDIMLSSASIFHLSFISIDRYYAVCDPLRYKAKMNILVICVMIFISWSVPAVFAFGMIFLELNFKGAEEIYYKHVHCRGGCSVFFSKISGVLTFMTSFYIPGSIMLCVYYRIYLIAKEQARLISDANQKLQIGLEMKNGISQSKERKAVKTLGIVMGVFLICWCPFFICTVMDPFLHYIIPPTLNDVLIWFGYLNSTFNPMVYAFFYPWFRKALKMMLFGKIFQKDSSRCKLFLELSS

cells [4] = type: functional, cell-based; remark: listed apart in the source
[5] = molecular target: T1, Trace amine-associated receptor 1; experiment: Counterscreen for agonists of the human trace amine associated receptor 1 (hTAAR1): Fluorescence-based cell-based high throughput dose response assay to identify hTAAR1 agonist that also desensitize TAAR1 receptor response.; type: functional
[6] = Trypanosoma cruzi growth suppression in host cells – NIH3T3 host cells, beta-gal luminescence, confirmation (AID 2044); type: functional, cell-based;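 note: intracellular parasites grown in NIH/3T3 mouse fibroblasts as host cells; luminescent beta-galactosidase reporter signal from transgenic T. cruzi replicating inside host cells; inhibitors lower the luminescence signal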
[7] = NIH3T3 cell viability loss – ATP luminescence, mouse fibroblasts, counter-screen, dose response (AID 2010); type: functional, cell-based;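 note: cells exposed to compound for about 90 hours before reading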
[8] = molecular target: Induced myeloid leukemia cell differentiation protein Mcl-1 (Homo sapiens, UniProt Q07820); type: functional

CCCC(=O)Nc1c2c(nn1-c1ccc(OC)cc1)C[S+]([O-])C2 (stereo unspecified)
Ki (fMet-Leu-Phe receptor): > 66.7 µM (inactive)

Cc1cc(NC(=O)CSc2nc(CCC3CCCC3)nc3ccccc23)no1
IC50 (cells [1]): > 138 µM (inactive)
IC50 (Major prion protein): 9.42 µM (active)

O=C(Cc1ccccc1)NNC(=S)NC(=O)c1cccnc1
IC50 (Albumin): > 94.1 µM (inactive)

CCc1nc(SCC(=O)NNC(=O)C(C)C)c2ccccc2n1
IC50 (cells [1]): > 138 µM (inactive)
IC50 (Major prion protein): 1.93 µM (active)

CC1CN(C(NC(=O)C(C)(C)C)C(Cl)(Cl)Cl)CC(C)O1 (stereo unspecified)
AC50 (Cytochrome P450 2C9): 14.1 µM (inconclusive)
IC50 (cells [2]): > 29.9 µM (inactive)
AC50 (Cytochrome P450 2C19): 8.91 µM (inconclusive)
EC50 [3]: 3.82 µM (active)
EC50 (cells [4]): > 29.9 µM (inactive)
IC50 [5]: 21.6 µM (inactive)

CCc1nnc(S)n1/N=C/c1cc(OC)cc([N+](=O)[O-])c1O
EC50 [6]: 0.815 µM (active)
EC50 [7]: > 60 µM (not active)
IC50 (Albumin): > 94.1 µM (inactive)
IC50 [8]: 12.4 µM (active)
